Where a name gives a salt, the structure may show the parent alone. Read-outs that look alike come from different tables or passages of the source.

What all share (type): cell-based
In one assay the test system is HIV-1 containing L74V. Kind of assay: microbe, parasite or virus in culture. The settings on record: for EC90 / EC50: Human immunodeficiency virus 1, Lymphocyte; for FI50 (ratio of EC50 against mutant virus:EC50 against wild-type xxLAI) / FI90 (ratio of EC90 against mutant virus:EC90 against wild-type xxLAI): L74V.
Another assay concerns HIV-1 containing K65R. Kind of assay: microbe, parasite or virus in culture. The settings on record: for EC50 / EC90: Human immunodeficiency virus 1, Lymphocyte; for FI50 (ratio of EC50 against mutant virus:EC50 against wild-type xxLAI) / FI90 (ratio of EC90 against mutant virus:EC90 against wild-type xxLAI): K65R.
Another assay concerns wild-type HIV-1xxLAI. Kind of assay: Antiviral potency in primary human lymphocytes, wild type. Particulars: Human immunodeficiency virus 1, Lymphocyte.
In assay [1] the test system is HIV-1 containing A62V/V75I/F77L/F116Y/Q151M. Kind of assay: microbe, parasite or virus in culture. Particulars: for FI50 (ratio of EC50 against mutant virus:EC50 against wild-type xxLAI) / FI90 (ratio of EC90 against mutant virus:EC90 against wild-type xxLAI): A62V/V75I/F77L/F116Y/Q151M; for EC50 / EC90: Human immunodeficiency virus 1, Lymphocyte.
Assay [2] has as its system HIV-1 containing 4xAZT (D67N/K70R/T215Y/K219Q). Nature of the assay: microbe, parasite or virus in culture. The settings on record: for FI50 (ratio of EC50 against mutant virus:EC50 against wild-type xxLAI) / FI90 (ratio of EC90 against mutant virus:EC90 against wild-type xxLAI): 4xAZT (D67N/K70R/T215Y/K219Q); for EC50 / EC90: Human immunodeficiency virus 1, Lymphocyte.
For another assay, the system named is HIV-1 containing M184V. Kind of assay: microbe, parasite or virus in culture. Particulars: for EC50 / EC90: Human immunodeficiency virus 1, Lymphocyte; for FI50 (ratio of EC50 against mutant virus:EC50 against wild-type xxLAI) / FI90 (ratio of EC90 against mutant virus:EC90 against wild-type xxLAI): M184V.
The test system of assay [3] is various NRTI-resistant HIV-1. Kind of assay: Antiviral potency against various NRTI-resistant HIV-1 in primary human lymphocytes (summary over strains). The settings on record: K65R, M184V, L74V, A62V/V75I/F77L/F116Y/Q151M, 4xAZT. An excerpt:
FI50 is the ratio of EC50 against mutant virus:EC50 against wild-type xxLAI. FI90 is the ratio of EC90 against mutant virus:EC90 against wild-type xxLAI.

[4] abbreviates: xxLAI, primary human lymphocytes, read-out: EC50.
Where [5] appears, read: xxLAI, primary human lymphocytes, read-out: EC90.

Usually EC90 stands for the concentration at which the effect reaches the 90% level. As a reminder, the EC50 is the concentration needed to bring the measured effect to its halfway point. With `CC(C)OC(=O)OCOP(=O)(CO[C@H](C)Cn1cnc2c(N)ncnc21)OCOC(=O)OC(C)C` [TDF, Tenofovir disoproxil fumarate], the EC90 with HIV-1 containing L74V is 0.2 ± 0.1 µM; in the assay on HIV-1 containing K65R, 1.6 ± 0.5 µM; in the assay with wild-type HIV-1xxLAI (setting [5]), 0.9 ± 0.8 µM; in assay [1] it was 3.6 ± 2.2 µM; in assay [2], 1.2 ± 1.1 µM; in the assay on HIV-1 containing M184V, 0.5 ± 0.3 µM. Also, the “FI50 (ratio of EC50 against mutant virus:EC50 against wild-type xxLAI)” value came out at 1.4 in the assay with HIV-1 containing L74V; 2.2 with HIV-1 containing K65R; 3.9 in assay [1]; 1.3 in assay [2]; 0.6 with HIV-1 containing M184V. In addition, the “FI90 (ratio of EC90 against mutant virus:EC90 against wild-type xxLAI)” value was determined as 1.2 in the assay with HIV-1 containing L74V; 1.7 with HIV-1 containing K65R; 3.9 in assay [1]; 1.3 in assay [2]; 0.6 in the assay on HIV-1 containing M184V. The EC50 with HIV-1 containing K65R turned out to be 0.4 ± 0.1 µM; in the assay on wild-type HIV-1xxLAI (setting [4]), 0.2 ± 0.2 µM; in assay [1], 0.7 ± 0.8 µM; in assay [2] it was 0.07 ± 0.04 µM; with HIV-1 containing M184V, 0.09 ± 0.03 µM.
`Nc1ccn([C@@H]2CS[C@H](CO)O2)c(=O)n1` [Compound 3TC, (−)-cis-2-hydroxymethyl-5-(cytosin-1-yl)-1,3-oxathiolane]: the EC50 is 0.6 ± 0.8 µM in the assay on HIV-1 containing L74V; 2.5 ± 3 µM in the assay on HIV-1 containing K65R; 0.8 ± 0.4 µM with wild-type HIV-1xxLAI (setting [4]); 0.5 ± 0.7 µM in assay [1]; 0.7 ± 0.8 µM in assay [2]; above 10 µM in the assay with HIV-1 containing M184V. Further, the EC90 in the assay with HIV-1 containing L74V was 2.9 ± 2.9 µM; in the assay on HIV-1 containing K65R, 6 ± 5.3 µM; in the assay with wild-type HIV-1xxLAI (setting [5]) it was 3.1 ± 1.2 µM; in assay [1], 2.7 ± 1.7 µM; in assay [2] it was 3.4 ± 1.1 µM; in the assay with HIV-1 containing M184V, above 10 µM. Also, the “FI50 (ratio of EC50 against mutant virus:EC50 against wild-type xxLAI)” value in the assay on HIV-1 containing L74V came to 0.7; in the assay with HIV-1 containing K65R, 3.3; in assay [1], 0.6; in assay [2], 0.9; in the assay with HIV-1 containing M184V, 13.3. Besides, the “FI90 (ratio of EC90 against mutant virus:EC90 against wild-type xxLAI)” value is 0.9 with HIV-1 containing L74V; 1.9 in the assay with HIV-1 containing K65R; 0.9 in assay [1]; 1.1 in assay [2]; 3.2 in the assay on HIV-1 containing M184V.
`OC[C@@H]1CC[C@H](n2cnc3c(O)ncnc32)O1` [ddI, 2′,3′-dideoxyinosine]: the EC50 was 13.2 ± 8.5 µM in the assay on HIV-1 containing L74V; 21.2 ± 18.3 µM in the assay on HIV-1 containing K65R; 11.5 ± 6.6 µM in the assay on wild-type HIV-1xxLAI (setting [4]); 40.5 ± 52.1 µM in assay [1]; 35.5 ± 31 µM in assay [2]; 11.5 ± 9.1 µM in the assay on HIV-1 containing M184V. In addition, the EC90 with HIV-1 containing L74V was 80.9 ± 16.6 µM; in the assay with HIV-1 containing K65R it was 86.7 ± 0.8 µM; with wild-type HIV-1xxLAI (setting [5]), 55.4 ± 23 µM; in assay [1], 83.5 ± 28.6 µM; in assay [2] it was 77.1 ± 32.4 µM; with HIV-1 containing M184V it was 44.9 ± 26.2 µM. Further, the “FI50 (ratio of EC50 against mutant virus:EC50 against wild-type xxLAI)” value amounted to 1.1 in the assay with HIV-1 containing L74V; 1.8 in the assay with HIV-1 containing K65R; 3.5 in assay [1]; 3.1 in assay [2]; 1 in the assay on HIV-1 containing M184V. Moreover, the “FI90 (ratio of EC90 against mutant virus:EC90 against wild-type xxLAI)” value in the assay with HIV-1 containing L74V was 1.1; in the assay with HIV-1 containing K65R, 1.6; in assay [1] it was 1.5; in assay [2] it was 1.4; in the assay with HIV-1 containing M184V, 0.8.
With `O=C1Nc2ccc(Cl)cc2[C@@](C#CC2CC2)(C(F)(F)F)O1` [EFV, efavirenz], the “antiviral potency for wild-type HIV-1xxLAI versus NRTI-resistant HIV-1” value in assay [3] is “similarly potent across all NRTI resistant strains”. Further, the EC50 stood at 0.06 ± 0.07 µM in the assay with HIV-1 containing L74V; 0.007 µM in the assay on HIV-1 containing K65R; 0.02 ± 0.03 µM in the assay on wild-type HIV-1xxLAI (setting [4]); 0.2 ± 0.3 µM in assay [1]; 0.07 ± 0.04 µM in assay [2]; 0.01 ± 0.006 µM with HIV-1 containing M184V. Further, the “FI50 (ratio of EC50 against mutant virus:EC50 against wild-type xxLAI)” value with HIV-1 containing L74V is 2.6; in the assay on HIV-1 containing K65R it was 0.3; in assay [1] it was 7.7; in assay [2], 3.1; with HIV-1 containing M184V, 0.5. In addition, the “FI90 (ratio of EC90 against mutant virus:EC90 against wild-type xxLAI)” value in the assay with HIV-1 containing L74V is 1.1; with HIV-1 containing K65R it was 0.1; in assay [1], 2; in assay [2], 1; in the assay on HIV-1 containing M184V it was 0.4. Further, the EC90 in the assay on HIV-1 containing K65R came out at 0.02 ± 0.01 µM; with wild-type HIV-1xxLAI (setting [5]), 0.2 ± 0.3 µM; in assay [1], 0.44 ± 0.6 µM; with HIV-1 containing M184V, 0.08 ± 0.08 µM.
Take `Cc1cn([C@H]2C=C[C@@H](CO)O2)c(=O)[nH]c1=O` [Compound D4T, 2′,3′-dideoxy-2′,3′-didehydrothymidine]: the EC50 turned out to be 0.9 ± 0.8 µM with HIV-1 containing L74V; 1.5 ± 0.6 µM in the assay on HIV-1 containing K65R; 1 ± 0.5 µM in the assay with wild-type HIV-1xxLAI; 6.8 ± 5.7 µM in assay [1]; 27.8 ± 37.1 µM in assay [2]; 0.6 ± 0.8 µM with HIV-1 containing M184V. The concentration for an effect of 90% (EC90) in the assay on HIV-1 containing L74V is 9.8 ± 2.4 µM; with HIV-1 containing K65R, 7.9 ± 0.3 µM; in the assay with wild-type HIV-1xxLAI, 6.4 ± 0.4 µM; in assay [1], 70.3 ± 51.4 µM; in assay [2] it was 53.2 ± 66.3 µM; with HIV-1 containing M184V, 2.6 ± 2.5 µM. Besides, the “FI50 (ratio of EC50 against mutant virus:EC50 against wild-type xxLAI)” value amounted to 0.9 with HIV-1 containing L74V, 1.5 in the assay on HIV-1 containing K65R, 6.9 in assay [1] and 0.6 in the assay with HIV-1 containing M184V. The “FI90 (ratio of EC90 against mutant virus:EC90 against wild-type xxLAI)” value is on record as 1.5 in the assay on HIV-1 containing L74V; 1.2 with HIV-1 containing K65R; 11 in assay [1]; 8.3 in assay [2]; 0.4 in the assay with HIV-1 containing M184V.
Turning to `Nc1nc(=O)n([C@@H]2CS[C@H](CO)O2)cc1F` (relative stereo) [(−)FTC, cis-2-hydroxymethyl-5-(5-fluorocytosin-1-yl)-1,3-oxathiolane], the EC50 came to 0.2 ± 0.2 µM in the assay with HIV-1 containing L74V; 0.5 ± 0.4 µM in the assay with HIV-1 containing K65R; 0.09 ± 0.02 µM with wild-type HIV-1xxLAI (setting [4]); 0.4 ± 0.3 µM in assay [1]; 0.2 ± 0.1 µM in assay [2]; 10.1 ± 7.3 µM with HIV-1 containing M184V. Also, the EC90 in the assay on HIV-1 containing L74V came out at 1.3 ± 1 µM; in the assay with HIV-1 containing K65R, 2.4 ± 1.4 µM; in the assay with wild-type HIV-1xxLAI (setting [5]), 0.8 ± 0.4 µM; in assay [1] it was 2.1 ± 1.6 µM; in assay [2] it was 1.2 ± 0.1 µM; in the assay on HIV-1 containing M184V, 41.3 ± 29.3 µM. The “FI50 (ratio of EC50 against mutant virus:EC50 against wild-type xxLAI)” value amounted to 2 in the assay with HIV-1 containing L74V; 5.5 in the assay with HIV-1 containing K65R; 4.2 in assay [1]; 2 in assay [2]; 117 in the assay on HIV-1 containing M184V. For the same compound, the “FI90 (ratio of EC90 against mutant virus:EC90 against wild-type xxLAI)” value worked out at 1.6 in the assay on HIV-1 containing L74V; 2.9 in the assay with HIV-1 containing K65R; 2.5 in assay [1]; 1.4 in assay [2]; 50 in the assay on HIV-1 containing M184V.
